Results taken from patent US8173645B2 (Takeda San Diego, Inc., priority 2007, dated 2012).

Biological target: T1, glucokinase (GK), residues 12-465 of the human enzyme (Homo sapiens, UniProt P35557)
T1 construct: I.D. No. 1 corresponds to residues 12-465 of glucokinase; made in house; host or cells: E. coli DH10b-Tlr
T1 sequence (P35557 with tags, fused parts or gaps isoform P35557-2): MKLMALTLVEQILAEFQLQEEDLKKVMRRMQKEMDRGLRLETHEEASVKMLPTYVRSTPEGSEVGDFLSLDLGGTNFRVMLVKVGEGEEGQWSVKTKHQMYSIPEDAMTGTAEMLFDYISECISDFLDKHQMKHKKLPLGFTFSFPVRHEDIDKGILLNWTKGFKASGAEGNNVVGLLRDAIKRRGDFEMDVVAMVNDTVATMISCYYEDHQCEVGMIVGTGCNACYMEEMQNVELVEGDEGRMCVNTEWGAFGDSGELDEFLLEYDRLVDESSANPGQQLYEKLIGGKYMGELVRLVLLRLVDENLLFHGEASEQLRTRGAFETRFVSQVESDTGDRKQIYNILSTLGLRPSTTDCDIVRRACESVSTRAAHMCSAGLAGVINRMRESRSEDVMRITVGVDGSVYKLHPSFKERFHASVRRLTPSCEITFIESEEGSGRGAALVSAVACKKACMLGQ
Assay: Enzymatic glucokinase activity assay (KinaseGlo luminescence, ATP consumption)
Assay type: biochemical
Conditions: 5 μM ATP, 5 mM Glucose; for EC50: GK activation, Kact = concentration giving 50% of the maximal increase in GK activity, read-out: pKact; for Emax: calculated maximal gain in GK enzyme activity at a saturating concentration of the compound, read-out: % ACTmax
How it was run: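 C-terminally FLAG-tagged enzyme expressed in E. coli and purified. Reaction: 25 mM Hepes pH 7.2, 25 mM NaCl, 10 mM MgCl2, 0.01% Brij35, 1 mM DTT, 5 μM ATP, 5 mM glucose, 2% DMSO, 60 min at room temperature. Remaining ATP was read by luciferase luminescence; pKact and % ACTmax came from nonlinear fits of 11-point 2-fold dilutions.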

| SMILES | EC50 [nM] | Emax [%] |
| --- | --- | --- |
| O=C(Nc1nccs1)[C@H](CC1CCCCC1)N1CCN(S(=O)(=O)c2ccc(F)c(Cl)c2)CC1=O [Example 177, (S)-2-(4-(3-chloro-4-fluorophenylsulfonyl)-2-oxopiperazin-1-yl)-3-cyclohexyl-N-(thiazol-2-yl)propanamide] | 1580 to 2510 | 74.1 to 97 |
| COc1ccc2nc(NC(=O)C(CC3CCOCC3)N3CCN(S(=O)(=O)C4CC4)CC3=O)sc2n1 (centres unmarked) [Example 26, 2-(4-(cyclopropylsulfonyl)-2-oxopiperazin-1-yl)-N-(5-methoxythiazolo[5,4-b]pyridin-2-yl)-3-(tetrahydro-2H-pyran-4-yl)propanamide] | ≥ 3160 | 74.1 to 97 |
| O=C(Nc1nccs1)[C@H](CC1CCCCC1)N1CCN(S(=O)(=O)c2ccc(-c3ccno3)s2)CC1=O [Example 174, (S)-3-cyclohexyl-2-(4-(5-(isoxazol-5-yl)thiophen-2-ylsulfonyl)-2-oxopiperazin-1-yl)-N-(thiazol-2-yl)propanamide] | 1580 to 2510 | ≤ 74 |
| O=C(Nc1ncc(Cl)s1)C(CC1CCOCC1)N1CCN(S(=O)(=O)c2cccc(F)c2)CC1=O (centres unmarked) [Example 147, N-(5-chlorothiazol-2-yl)-2-(4-(3-fluorophenylsulfonyl)-2-oxopiperazin-1-yl)-3-(tetrahydro-2H-pyran-4-yl)propanamide] | 794 to 1260 | 108 to 119 |
| Cc1cc(S(=O)(=O)N2CCN([C@@H](CC3CCCCC3)C(=O)Nc3nccs3)C(=O)C2)c(C)s1 [Example 180, (S)-3-cyclohexyl-2-(4-(2,5-dimethylthiophen-3-ylsulfonyl)-2-oxopiperazin-1-yl)-N-(thiazol-2-yl)propanamide] | ≤ 631 | 108 to 119 |
| CC(C)C[C@@H](C(=O)Nc1ncc(F)s1)N1CCN(S(=O)(=O)C2CC2)CC1=O [Example 11, (S)-2-(4-(cyclopropylsulfonyl)-2-oxopiperazin-1-yl)-N-(5-fluorothiazol-2-yl)-4-methylpentanamide] | 794 to 1260 | ≥ 119 |
| O=C(Nc1nccs1)[C@H](CC1CCCCC1)N1CCN(S(=O)(=O)c2ccc(-c3cnco3)s2)CC1=O [Example 161, (S)-3-cyclohexyl-2-(4-(5-(oxazol-5-yl)thiophen-2-ylsulfonyl)-2-oxopiperazin-1-yl)-N-(thiazol-2-yl)propanamide] | 1580 to 2510 | 97.1 to 107 |
| CS(=O)(=O)N1CCN([C@@H](CC2CCCCC2)C(=O)Nc2nccs2)C(=O)C1 [Example 1, (S)-3-cyclohexyl-2-(4-(methylsulfonyl)-2-oxopiperazin-1-yl)-N-(thiazol-2-yl)propanamide] | 1580 to 2510 | 74.1 to 97 |
| O=C(Nc1nccs1)[C@H](CC1CCCCC1)N1CCN(S(=O)(=O)c2ccc(Cl)s2)CC1=O [Example 172, (S)-2-(4-(5-chlorothiophen-2-ylsulfonyl)-2-oxopiperazin-1-yl)-3-cyclohexyl-N-(thiazol-2-yl)propanamide] | ≤ 631 | 97.1 to 107 |
| O=C(Nc1nccs1)[C@H](CC1CCCCC1)N1CCN(S(=O)(=O)c2cc(F)ccc2F)CC1=O [Example 184, (S)-3-cyclohexyl-2-(4-(2,5-difluorophenylsulfonyl)-2-oxopiperazin-1-yl)-N-(thiazol-2-yl)propanamide] | ≤ 631 | 108 to 119 |

Now from value to compound:

| EC50 [nM] | Emax [%] | SMILES |
| --- | --- | --- |
| 1580 to 2510 | ≤ 74 | Cc1c(S(=O)(=O)N2CCN([C@@H](CC3CCCCC3)C(=O)Nc3nccs3)C(=O)C2)cnn1-c1ccccc1 [Example 163, (S)-3-cyclohexyl-2-(4-(5-methyl-1-phenyl-1H-pyrazol-4-ylsulfonyl)-2-oxopiperazin-1-yl)-N-(thiazol-2-yl)propanamide] |
| 794 to 1260 | ≥ 119 | COc1cccc(S(=O)(=O)N2CCN([C@@H](CC3CCCCC3)C(=O)Nc3nccs3)C(=O)C2)c1 [Example 92, (S)-3-cyclohexyl-2-(4-(3-methoxyphenylsulfonyl)-2-oxopiperazin-1-yl)-N-(thiazol-2-yl)propanamide] |
| ≥ 3160 | 74.1 to 97 | O=C(Nc1nccs1)[C@H](CC1CCCCC1)N1CCN(C(=O)Nc2cccc(C(F)(F)F)c2)CC1=O [Example 141, (S)-4-(3-cyclohexyl-1-oxo-1-(thiazol-2-ylamino)propan-2-yl)-3-oxo-N-(3-(trifluoromethyl)phenyl)piperazine-1-carboxamide] |
| 1580 to 2510 | ≤ 74 | O=C(Nc1nccs1)[C@H](CC1CCCCC1)N1CCN(S(=O)(=O)c2ccc(Oc3ccccc3)nc2)CC1=O [Example 209, (S)-3-cyclohexyl-2-(2-oxo-4-(6-phenoxypyridin-3-ylsulfonyl)piperazin-1-yl)-N-(thiazol-2-yl)propanamide] |
| 1580 to 2510 | ≤ 74 | O=C(Nc1nccs1)[C@H](CC1CCCCC1)N1CCN(C(=S)Nc2ccc(Oc3ccccc3)cc2)CC1=O [Example 127, (S)-3-cyclohexyl-2-(2-oxo-4-(4-phenoxyphenylcarbamothioyl)piperazin-1-yl)-N-(thiazol-2-yl)propanamide] |
| ≥ 3160 | 74.1 to 97 | O=C(O)c1cccc(S(=O)(=O)N2CCN([C@@H](CC3CCCCC3)C(=O)Nc3nccs3)C(=O)C2)c1 [Example 49, (S)-3-(4-(3-cyclohexyl-1-oxo-1-(thiazol-2-ylamino)propan-2-yl)-3-oxopiperazin-1-ylsulfonyl)benzoic acid] |
| 1580 to 2510 | 74.1 to 97 | O=C(Nc1nccs1)[C@H](CC1CCCCC1)N1CCN(S(=O)(=O)c2ccc(Br)cc2)CC1=O [Example 204, (S)-2-(4-(4-bromophenylsulfonyl)-2-oxopiperazin-1-yl)-3-cyclohexyl-N-(thiazol-2-yl)propanamide] |
| 1580 to 2510 | 97.1 to 107 | O=C(Nc1nccs1)[C@H](CC1CCCCC1)N1CCN(C(=S)Nc2cccc3ccccc23)CC1=O [Example 80, (S)-3-cyclohexyl-2-(4-(naphthalen-1-ylcarbamothioyl)-2-oxopiperazin-1-yl)-N-(thiazol-2-yl)propanamide] |
| ≤ 631 | 74.1 to 97 | O=C(Nc1nccs1)[C@H](CC1CCCCC1)N1CCN(S(=O)(=O)c2ccc(Oc3ccccn3)cc2)CC1=O [Example 207, (S)-3-cyclohexyl-2-(2-oxo-4-(4-(pyridin-2-yloxy)phenylsulfonyl)piperazin-1-yl)-N-(thiazol-2-yl)propanamide] |
| 794 to 1260 | ≤ 74 | O=C(Nc1nccs1)[C@H](CC1CCCCC1)N1CCN(S(=O)(=O)c2csc3ccccc23)CC1=O [Example 50, (S)-2-(4-(benzo[b]thiophen-3-ylsulfonyl)-2-oxopiperazin-1-yl)-3-cyclohexyl-N-(thiazol-2-yl)propanamide] |
| 794 to 1260 | 97.1 to 107 | O=C(Nc1nccs1)[C@H](CC1CCCCC1)N1CCN(C(=S)NC2CCCC2)CC1=O [Example 128, (S)-3-cyclohexyl-2-(4-(cyclopentylcarbamothioyl)-2-oxopiperazin-1-yl)-N-(thiazol-2-yl)propanamide] |
| 794 to 1260 | ≤ 74 | CC(C)(C)c1ccc(S(=O)(=O)N2CCN([C@@H](CC3CCCCC3)C(=O)Nc3nccs3)C(=O)C2)cc1 [Example 224, (S)-2-(4-(4-tert-butylphenylsulfonyl)-2-oxopiperazin-1-yl)-3-cyclohexyl-N-(thiazol-2-yl)propanamide] |
